Like-named read-outs stand apart in the source and are kept apart here.
What was measured:
[1] = Microsomal stability assay, human; format: in vitro ADME; settings: metabolic stability, human liver microsomes 0.5 mg/mL, substrate 3 uM
Procedure: (§1) The micorsomal stability assay is generally performed as follows. Format: 15 compounds (and 1 control verapamil) in 3 different species in duplicate sets Substrate: 3 uM Protein concentration: 0.5 mg/mL (for dog, rat, and human liver microsomes) Cofactor: 1×NADPH-Regenerating system Time-points: 2, 12, 25, 45, and 65 minutes [table] Sample preparation: 25 uL at each timepoint is added to plate with 225 uL quenching solution (50% MeOH, 25% ACN, 25% H2O, and 50 nM […]). After plates are vortexed, centrifuge for 30 minutes. Microsomal solutions: take 400 uL of 20 mg/mL microsomes and add to 13,680 uL 100 mM KPO4 buffer. Using an 8-channel, add 650 uL of this solution to the designated two columns on a short plate. The order should be dog microsomes in columns 1 and 2, rat microsomes in columns 3 and 4, and human microsomes in columns 5 and 6. Keep on ice before use. Place this plate in incubator 1 on the TECAN countertop.

[2] = Microsomal stability assay, dog; format: in vitro ADME; settings: metabolic stability, dog liver microsomes 0.5 mg/mL, substrate 3 uM
Procedure: as §1

[3] = biological target: wild-type human cardiac sodium channel, hNav1.5 (late INa) (Homo sapiens, UniProt Q14524); assay: Late INa screening assay (QPatch whole cell patch clamp); format: cell-based
Sequence of wild-type human cardiac sodium channel, hNav1.5 (late INa) (Q14524 whole entry): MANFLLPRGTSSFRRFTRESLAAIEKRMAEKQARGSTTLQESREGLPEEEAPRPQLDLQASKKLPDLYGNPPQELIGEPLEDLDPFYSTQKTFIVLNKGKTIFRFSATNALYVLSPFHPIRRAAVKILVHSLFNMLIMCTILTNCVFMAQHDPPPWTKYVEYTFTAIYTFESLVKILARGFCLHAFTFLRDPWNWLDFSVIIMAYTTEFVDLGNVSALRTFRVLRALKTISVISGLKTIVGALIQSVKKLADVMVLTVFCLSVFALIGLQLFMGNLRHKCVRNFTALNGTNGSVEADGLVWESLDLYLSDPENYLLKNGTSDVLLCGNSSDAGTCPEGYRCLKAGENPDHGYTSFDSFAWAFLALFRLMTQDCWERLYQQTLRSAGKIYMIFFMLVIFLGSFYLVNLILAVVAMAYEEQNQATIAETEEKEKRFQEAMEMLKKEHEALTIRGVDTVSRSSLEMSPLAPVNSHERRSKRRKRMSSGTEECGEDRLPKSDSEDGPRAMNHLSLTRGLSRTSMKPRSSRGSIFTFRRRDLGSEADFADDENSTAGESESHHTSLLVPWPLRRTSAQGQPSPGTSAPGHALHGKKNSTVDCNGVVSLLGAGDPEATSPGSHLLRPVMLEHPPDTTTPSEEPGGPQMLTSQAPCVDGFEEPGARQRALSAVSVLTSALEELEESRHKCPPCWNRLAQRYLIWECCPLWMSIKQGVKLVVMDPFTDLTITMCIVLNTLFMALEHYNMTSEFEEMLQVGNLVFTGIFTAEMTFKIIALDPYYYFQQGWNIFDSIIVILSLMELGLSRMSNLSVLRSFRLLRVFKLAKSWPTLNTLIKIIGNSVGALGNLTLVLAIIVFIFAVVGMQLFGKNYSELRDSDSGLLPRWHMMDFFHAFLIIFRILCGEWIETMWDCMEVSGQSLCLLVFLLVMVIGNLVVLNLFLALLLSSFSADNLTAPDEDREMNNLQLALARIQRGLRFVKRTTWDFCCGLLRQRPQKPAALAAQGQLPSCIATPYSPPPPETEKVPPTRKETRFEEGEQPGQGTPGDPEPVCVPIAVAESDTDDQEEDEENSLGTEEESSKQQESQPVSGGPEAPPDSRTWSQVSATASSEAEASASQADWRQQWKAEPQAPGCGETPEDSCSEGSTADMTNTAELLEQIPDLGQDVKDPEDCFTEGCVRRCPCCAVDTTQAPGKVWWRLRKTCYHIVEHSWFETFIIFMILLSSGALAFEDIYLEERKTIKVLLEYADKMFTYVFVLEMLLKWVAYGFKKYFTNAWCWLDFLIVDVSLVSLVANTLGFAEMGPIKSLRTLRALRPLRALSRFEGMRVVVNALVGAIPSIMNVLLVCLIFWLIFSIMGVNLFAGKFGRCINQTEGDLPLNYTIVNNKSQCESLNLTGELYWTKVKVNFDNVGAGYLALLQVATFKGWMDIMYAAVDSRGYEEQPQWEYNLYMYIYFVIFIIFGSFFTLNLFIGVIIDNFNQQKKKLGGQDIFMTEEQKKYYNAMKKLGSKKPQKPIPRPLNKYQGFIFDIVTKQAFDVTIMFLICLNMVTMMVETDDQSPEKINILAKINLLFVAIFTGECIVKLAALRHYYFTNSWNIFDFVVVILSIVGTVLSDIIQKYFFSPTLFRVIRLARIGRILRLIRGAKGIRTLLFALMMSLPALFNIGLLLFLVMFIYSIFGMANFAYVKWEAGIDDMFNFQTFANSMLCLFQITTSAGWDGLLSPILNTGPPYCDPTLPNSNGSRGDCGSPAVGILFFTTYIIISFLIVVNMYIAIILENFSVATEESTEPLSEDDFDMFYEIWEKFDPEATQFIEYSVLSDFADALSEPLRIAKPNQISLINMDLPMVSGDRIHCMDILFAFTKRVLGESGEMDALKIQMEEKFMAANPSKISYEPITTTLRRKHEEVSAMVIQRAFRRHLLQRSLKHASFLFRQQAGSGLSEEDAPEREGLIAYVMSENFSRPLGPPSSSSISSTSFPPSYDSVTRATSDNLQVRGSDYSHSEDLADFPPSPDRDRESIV
In short: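 Compounds tested at 1 μM final in extracellular solution against tefluthrin (10 μM)-enhanced late current. Automated patch clamp (23-25° C) on HEK293 expressing alpha subunit alone: −120 mV holding, 250 ms depolarization to −20 mV every 10 s. Read-out is percent inhibition of mean current over 225–250 ms.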

[4] = Microsomal stability assay, rat; format: in vitro ADME; settings: metabolic stability, rat liver microsomes 0.5 mg/mL, substrate 3 uM
Procedure: as §1

[5] = percent block of late INa, compound at 1 μM, 10 μM Tefluthrin, HEK293 hNav1.5, read-out: Late INa 1 μM

Which MS Human THalf [1] does the source give for `N#Cc1cnc(OCCn2nnc3ccc(-c4ccc(OC(F)(F)F)cc4)cc3c2=O)nc1` [II-51, 2-(2-(4-oxo-6-(4-(trifluoromethoxy)phenyl)benzo[d][1,2,3]triazin-3(4H)-yl)ethoxy)pyrimidine-5-carbonitrile] here?
Its MS Human THalf is > 395 min.

And the MS Dog THalf [2]?
Its MS Dog THalf is 93 min.

And the inhibition at 1 µM [3, 5]?
Its inhibition at 1 µM is 35%.

What about the MS Rat THalf [4] of the same compound?
The MS Rat THalf was 197 min.

With `O=c1c2cc(-c3ccc(OC(F)(F)F)cc3)ccc2cnn1Cc1cccnc1C1CC1` [III-20] as the compound, how does the MS Human THalf [1] read?
The MS Human THalf was 41 min.

And the MS Dog THalf [2]?
The MS Dog THalf was 61 min.

What about the inhibition at 1 µM [3, 5] of the same compound?
The inhibition at 1 µM was 28%.

And the MS Rat THalf [4]?
Its MS Rat THalf is 54 min.

Which MS Human THalf [1] does the source give for `CCc1nccn1CC1(Cn2nnc3ccc(-c4ccc(OC(F)(F)F)cc4)cc3c2=O)CC1` [II-57, 3-((1-((2-ethyl-1H-imidazol-1-yl)methyl)cyclopropyl)methyl)-6-(4-(trifluoromethoxy)phenyl)benzo[d][1,2,3]triazin-4(3H)-one] here?
The MS Human THalf was 2 min.

And the MS Dog THalf [2]?
The MS Dog THalf was 4 min.

What about the inhibition at 1 µM [3, 5] of the same compound?
The inhibition at 1 µM was 38%.

And the MS Rat THalf [4]?
Its MS Rat THalf is 2 min.

With `Cc1cc(C)n(CCn2ncc3ccc(-c4ccc(OC(F)(F)F)cc4)cc3c2=O)n1` [III-24, 2-(2-(3,5-dimethyl-1H-pyrazol-1-yl)ethyl)-7-(4-(trifluoromethoxy)phenyl)phthalazin-1 (2H)-one] as the compound, how does the MS Human THalf [1] read?
Its MS Human THalf is 13 min.

What about the MS Dog THalf [2] of the same compound?
Its MS Dog THalf is 18 min.

What about the inhibition at 1 µM [3, 5] of the same compound?
Its inhibition at 1 µM is 28%.

What about the MS Rat THalf [4] of the same compound?
Its MS Rat THalf is 9 min.

With `O=c1c2cc(-c3ccc(OC(F)(F)F)cc3)ccc2nnn1CCn1cccn1` [II-13, 3-(2-(1H-pyrazol-1-yl)ethyl)-6-(4-(trifluoromethoxy)phenyl)benzo[d][1,2,3]triazin-4(3H)-one] as the compound, how does the MS Human THalf [1] read?
The MS Human THalf was 149 min.

What about the MS Dog THalf [2] of the same compound?
Its MS Dog THalf is 36 min.

And the inhibition at 1 µM [3, 5]?
Its inhibition at 1 µM is 67%.

What about the MS Rat THalf [4] of the same compound?
The MS Rat THalf was 25 min.

Which results are given for `CC(c1nc(-c2ncccn2)no1)n1nnc2ccc(-c3ccc(OC(F)(F)F)cc3)cc2c1=O` (stereo not drawn) [II-53, 3-(1-(3-(pyrimidin-2-yl)-1,2,4-oxadiazol-5-yl)ethyl)-6-(4-(trifluoromethoxy)phenyl)benzo[d][1,2,3]triazin-4(3H)-one]?
MS Human THalf [1]: > 395 min; MS Dog THalf [2]: 646 min; inhibition at 1 µM [3, 5]: 29%; MS Rat THalf [4]: > 395 min

With `CC(C)(COc1ncccn1)Cn1nnc2ccc(-c3ccc(OC(F)(F)F)cc3)cc2c1=O` [II-84, 3-(2,2-dimethyl-3-(pyrimidin-2-yloxy)propyl)-6-(4-(trifluoromethoxy)phenyl)benzo[d][1,2,3]triazin-4(3H)-one] as the compound, how does the MS Human THalf [1] read?
Its MS Human THalf is 107 min.

What about the MS Dog THalf [2] of the same compound?
Its MS Dog THalf is 98 min.

And the inhibition at 1 µM [3, 5]?
Its inhibition at 1 µM is 34%.

What about the MS Rat THalf [4] of the same compound?
The MS Rat THalf was 51 min.

What does the source list for `O=c1c2cc(-c3cnc(N4CCCCC4)nc3)ccc2nnn1CCOc1ncccn1` [Compound V-12, 6-(2-(piperidin-1-yl)pyrimidin-5-yl)-3-(2-(pyrimidin-2-yloxy)ethyl)benzo[d][1,2,3]triazin-4(3H)-one]?
MS Human THalf [1]: 9 min; MS Dog THalf [2]: 5 min; inhibition at 1 µM [3, 5]: 26%; MS Rat THalf [4]: 11 min

For `O=C(NCc1ncccn1)N1CCc2ccc(-c3ccc(C(F)(F)F)cc3)cc2C1` [IX-89, N-(pyrimidin-2-ylmethyl)-7-(4-(trifluoromethyl)phenyl)-3,4-dihydroisoquinoline-2(1H)-carboxamide], which MS Human THalf [1] is on record?
Its MS Human THalf is 125 min.

What about the MS Dog THalf [2] of the same compound?
The MS Dog THalf was 177 min.

And the inhibition at 1 µM [3, 5]?
Its inhibition at 1 µM is 33%.

What about the MS Rat THalf [4] of the same compound?
Its MS Rat THalf is 192 min.

For `CCOC(=O)N1CCC(=O)C(n2nnc3ccc(-c4ccc(OC(F)(F)F)cc4)cc3c2=O)C1` (stereo not drawn) [II-72, ethyl 4-oxo-3-(4-oxo-6-(4-(trifluoromethoxy)phenyl)benzo[d][1,2,3]triazin-3(4H)-yl)piperidine-1-carboxylate], which MS Human THalf [1] is on record?
The MS Human THalf was 11 min.

And the MS Dog THalf [2]?
The MS Dog THalf was 6 min.

What about the inhibition at 1 µM [3, 5] of the same compound?
The inhibition at 1 µM was 31%.

And the MS Rat THalf [4]?
Its MS Rat THalf is 8 min.

Which MS Human THalf [1] does the source give for `Cc1cccc(CCn2ncc3ccc(-c4ccc(OC(F)(F)F)cc4)cc3c2=O)n1` [III-18, 2-(2-(6-methylpyridin-2-yl)ethyl)-7-(4-(trifluoromethoxy)phenyl)phthalazin-1 (2H)-one] here?
The MS Human THalf was 25 min.

And the MS Dog THalf [2]?
Its MS Dog THalf is 23 min.

And the inhibition at 1 µM [3, 5]?
The inhibition at 1 µM was 37%.

And the MS Rat THalf [4]?
Its MS Rat THalf is 20 min.

With `N#CC1(c2ccc(-c3ccc4nnn(CCOc5ncccn5)c(=O)c4c3)cc2)CC1` [II-50, 1-(4-(4-oxo-3-(2-(pyrimidin-2-yloxy)ethyl)-3,4-dihydrobenzo[d][1,2,3]triazin-6-yl)phenyl)cyclopropanecarbonitrile] as the compound, how does the MS Human THalf [1] read?
The MS Human THalf was 165 min.

What about the MS Dog THalf [2] of the same compound?
Its MS Dog THalf is 159 min.

And the inhibition at 1 µM [3, 5]?
The inhibition at 1 µM was 30%.

What about the MS Rat THalf [4] of the same compound?
The MS Rat THalf was 49 min.

Which MS Human THalf [1] does the source give for `O=C(N1CCCC1)N1CCc2ccc(-c3ccc(C(F)(F)F)cc3)cc2C1` [IX-53, pyrrolidin-1-yl(7-(4-(trifluoromethyl)phenyl)-3,4-dihydroisoquinolin-2(1H)-yl)methanone] here?
Its MS Human THalf is 198 min.

And the MS Dog THalf [2]?
The MS Dog THalf was 93 min.

And the inhibition at 1 µM [3, 5]?
The inhibition at 1 µM was 33%.

What about the MS Rat THalf [4] of the same compound?
Its MS Rat THalf is 28 min.

Which results are given for `O=c1c2cc(-c3ccc(OC(F)(F)F)cc3)ccc2nnn1C1CCN(CC(F)(F)F)CC1` [II-71, 3-(1-(2,2,2-trifluoroethyl)piperidin-4-yl)-6-(4-(trifluoromethoxy)phenyl)benzo[d][1,2,3]triazin-4(3H)-one]?
MS Human THalf [1]: 75 min; MS Dog THalf [2]: 78 min; inhibition at 1 µM [3, 5]: 25%; MS Rat THalf [4]: 94 min

Which results are given for `O=c1c2cc(-c3ccc(OC(F)(F)F)cc3)ccc2cnn1CCc1ccncn1` [III-36, 2-(2-(pyrimidin-4-yl)ethyl)-7-(4-(trifluoromethoxy)phenyl)phthalazin-1 (2H)-one]?
MS Human THalf [1]: 46 min; MS Dog THalf [2]: 31 min; inhibition at 1 µM [3, 5]: 39%; MS Rat THalf [4]: 32 min

For `O=C(NCc1ccco1)N1CCc2ccc(-c3ccc(C(F)(F)F)cc3)cc2C1` [IX-48, N-(furan-2-ylmethyl)-7-(4-(trifluoromethyl)phenyl)-3,4-dihydroisoquinoline-2(1H)-carboxamide], which MS Human THalf [1] is on record?
The MS Human THalf was 80 min.

What about the MS Dog THalf [2] of the same compound?
Its MS Dog THalf is 149 min.

What about the inhibition at 1 µM [3, 5] of the same compound?
The inhibition at 1 µM was 31%.

What about the MS Rat THalf [4] of the same compound?
Its MS Rat THalf is 37 min.

Which results are given for `Cc1ccn(CCn2ncc3ccc(-c4ccc(OC(F)(F)F)cc4)cc3c2=O)n1` [III-17, 2-(2-(3-methyl-1H-pyrazol-1-yl)ethyl)-7-(4-(trifluoromethoxy)phenyl)phthalazin-1 (2H)-one]?
MS Human THalf [1]: 34 min; MS Dog THalf [2]: 28 min; inhibition at 1 µM [3, 5]: 49%; MS Rat THalf [4]: 22 min

Which MS Human THalf [1] does the source give for `Cc1noc(Cn2nnc3ccc(-c4ccc(Oc5ccccc5)cc4)cc3c2=O)n1` [II-7, 3-((3-methyl-1,2,4-oxadiazol-5-yl)methyl)-6-(4-phenoxyphenyl)benzo[d][1,2,3]triazin-4(3H)-one] here?
The MS Human THalf was 10 min.

What about the MS Dog THalf [2] of the same compound?
The MS Dog THalf was 4 min.

What about the inhibition at 1 µM [3, 5] of the same compound?
The inhibition at 1 µM was 75%.

What about the MS Rat THalf [4] of the same compound?
The MS Rat THalf was 10 min.

Which results are given for `Cc1noc(Cn2nnc3ccc(-c4ccc(Oc5ccc(Cl)cc5)cc4)cc3c2=O)n1` [II-16, 6-(4-(4-chlorophenoxyl)phenyl)-3-((3-methyl-1,2,4-oxadiazol-5-yl)methyl)benzo[d][1,2,3]triazin-4(3H)-one]?
MS Human THalf [1]: 74 min; MS Dog THalf [2]: 31 min; inhibition at 1 µM [3, 5]: 76%; MS Rat THalf [4]: 102 min

What does the source list for `O=C(N1CCc2ccc(-c3ccc(C(F)(F)F)cc3)cc2C1)N1CC(O)C1` [IX-108, (3-hydroxyazetidin-1-yl)(7-(4-(trifluoromethyl)phenyl)-3,4-dihydroisoquinolin-2(1H)-yl)methanone]?
MS Human THalf [1]: 245 min; MS Dog THalf [2]: 370 min; inhibition at 1 µM ([3]; % inhibition at 1 μM, read-out: NAv1.5*-LATE-): 30%; inhibition at 1 µM [3, 5]: 30%; MS Rat THalf [4]: 302 min

From patent US20150329558A1, “FUSED HETEROCYCLIC COMPOUNDS AS ION CHANNEL MODULATORS” (Gilead Sciences, Inc., priority 2011, published 2015)
